# Laboratory results: patent publication US20120095055A1, “HEXAHYDROCYCLOPENTYL[f]INDAZOLE 5-HYDROXYMETHYL ETHANOLS AND DERIVATIVES THEREOF AS SELECTIVE GLUCOCORTICOID RECEPTOR MODULATORS” (Merck Sharp & Dohme, Corp., priority 2009, published 2012)
# Target: T1, human GR (Homo sapiens, UniProt P04150)
# T1 construct: naturally expresses the human GR; endogenous in cells
# T1 sequence (P04150 1-777): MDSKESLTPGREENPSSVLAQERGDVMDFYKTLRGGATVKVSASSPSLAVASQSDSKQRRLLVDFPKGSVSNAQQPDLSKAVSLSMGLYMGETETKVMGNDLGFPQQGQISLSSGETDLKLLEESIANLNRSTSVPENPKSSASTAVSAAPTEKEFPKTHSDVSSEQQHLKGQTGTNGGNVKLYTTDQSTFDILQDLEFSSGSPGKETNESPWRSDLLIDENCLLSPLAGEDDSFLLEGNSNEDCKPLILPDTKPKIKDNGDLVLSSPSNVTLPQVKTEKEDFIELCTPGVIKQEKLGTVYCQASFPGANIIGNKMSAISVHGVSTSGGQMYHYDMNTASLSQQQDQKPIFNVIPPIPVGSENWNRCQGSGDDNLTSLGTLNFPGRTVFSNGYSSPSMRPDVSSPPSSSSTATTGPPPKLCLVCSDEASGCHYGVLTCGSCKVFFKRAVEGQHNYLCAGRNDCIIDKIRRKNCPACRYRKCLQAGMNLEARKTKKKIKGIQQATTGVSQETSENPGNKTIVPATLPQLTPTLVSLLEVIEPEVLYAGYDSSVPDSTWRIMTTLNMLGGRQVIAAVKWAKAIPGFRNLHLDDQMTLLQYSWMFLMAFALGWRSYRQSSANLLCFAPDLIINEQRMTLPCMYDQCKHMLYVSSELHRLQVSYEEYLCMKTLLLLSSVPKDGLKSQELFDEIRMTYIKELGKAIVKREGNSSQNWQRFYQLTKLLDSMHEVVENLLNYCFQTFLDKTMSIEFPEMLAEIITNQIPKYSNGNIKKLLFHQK
# Experiment: Trans-Activation Modulation of Glucocorticoid Receptor Assay (GRAMMER), MMTV-LUC reporter in A549 cells
# Assay type: cell-based
# Conditions: for Transactivation A549 Cells GRAMMER Emax (%): Emax relative to the activity obtained with 300 nM dexamethasone; for EC50: inflection point (IP), MMTV-LUC reporter, read-out: Transactivation A549 Cells GRAMMER IP; for Emax: A549, Emax relative to the activity obtained with 300 nM dexamethasone, read-out: Transactivation A549 Cells GRAMMER Emax (%)
# Description: This assay assesses the ability of test compounds to control transcription from the MMTV-LUC reporter gene in lung adenocarcinoma A549 cells or HeLa cells, a human […] cell line that naturally expresses the human GR. The assay measures induction of a modified MMTV LTR/promoter linked to the LUC reporter gene.
# The routine transient assay consists of plating 7,000-25,000 cells/well of a white, clear-bottom 96-well plate. Alternatively, 384-well plates can be used at a cell concentration of 10,000/well. The media that the cells are plated in is “exponential growth medium” which consists of phenol red-free RPMI1640 containing 10% FBS, 4 mM L-glutamine, 20 mM HEPES, 10 ug/mL human insulin, and 20 ug/mL gentamicin. Incubator conditions are 37° C. and 5% CO2. The transfection is done in batch mode. The cells are trypsinized and counted to the right cell number in the proper amount of fresh media. It is then gently mixed with the FuGene6/DNA mix and plated onto the 96 or 384-well plate, all the wells receive 100 uL or 40 uL, respectively, of medium+lipid/DNA complex then incubated 37° C. overnight. The transfection cocktail consists of serum-free OptiMEM, FuGene6 reagent and DNA. The manufacturer's (Roche Biochemical) protocol for cocktail setup is as follows: The lipid to DNA ratio is approximately 2.5:1 and the incubation time is 20 min at room temperature. Sixteen to 24 hours after transfection, the cells are treated with dexamethasone to a final concentration of 10 nM as well as the compound of interest, such that final DMSO (vehicle) concentration is equal to or less than 1%. Each plate also contains samples that are treated with 10 nM dexamethasone alone, which is used as the 100% activity control. The cells are exposed to the compounds for 24 hours. After 24 hours, the cells are lysed by a Promega cell culture lysis buffer for approximately 30 min and then the luciferase activity in the extracts is assayed in the 96-well format luminometer. In 384-well format, Steady-Glo (Promega) or Steady-Lite (PerkinElmer) can be used by adding an equal volume of reagent to the media present in each well. Activity induced by 10 nM dexamethasone alone is set at 100% activity. Antagonist activity is calculated by determining the decrease in dexamethasone-induced activity in response to compound treatment relative to samples that were treated with dexamethasone alone. Results are expressed as % inhibition of 10 nM dexamethasone activity or as fold of 10 nM dexamethasone activity. This transactivation assay can be performed in an agonist and antagonist mode to identify these different activities.
# Activity of test compounds is calculated as the Emax relative to the activity obtained with 300 nM dexamethasone. Activity of test compounds is calculated as the Emax relative to the activity obtained with 300 nM DEX. The exemplified tissue selective glucocorticoid receptor modulators of the present invention display agonist activity in this assay of greater than 5% and less than 100%, and maximal transactivation activity less then maximal transrepression activity. […]
Compound,Transactivation A549 Cells GRAMMER Emax (%),EC50,Emax
"C[C@]12Cc3cnn(-c4ccc(F)cc4)c3C=C1CC[C@@]2(CO)CC(O)C1CCCCC1 (single isomer, unassigned) [Example 18b, 1-cyclohexyl-2-[(4αS)-1-(4-fluorophenyl)-5-(hydroxymethyl)-4α-methyl-1,4,4α,5,6,7-hexahydrocyclopenta[f]indazol-5-yl]ethanol]",56.2%,59.6 nM,–
"C[C@]12Cc3cnn(-c4ccccc4)c3C=C1CC[C@@]2(CO)CC(O)c1ccccn1 (single isomer, unassigned) [Example 23b]",47.7%,63.2 nM,–
"C[C@]12Cc3cnn(-c4ccc(F)cc4)c3C=C1CC[C@@]2(CO)CC(O)C1CC1 (single isomer, unassigned) [Example 20a, 1-cyclopropyl-2-[(4αS)-1-(4-fluorophenyl)-5-(hydroxymethyl)-4α-methyl-1,4,4α,5,6,7-hexahydrocyclopenta[f]indazol-5-yl]ethanol]",23.1%,187 nM,–
"Cc1ccc(C(O)C[C@]2(CO)CCC3=Cc4c(cnn4-c4ccc(F)cc4)C[C@@]32C)nc1 (stereo partly drawn) [Example 16, 2-[(4αS,5R)-1-(4-fluorophenyl)-5-(hydroxymethyl)-4α-methyl-1,4,4α,5,6,7-hexahydrocyclopenta[f]indazol-5-yl]-1-(5-methylpyridin-2-yl)ethanol]",–,18.4 nM,38.3%
"C[C@]12Cc3cnn(-c4ccc(F)cc4)c3C=C1CC[C@@]2(CO)CC(O)c1ccc(F)cn1 (single isomer, unassigned) [Example 22b]",74.3%,64.2 nM,–
"CC(O)(C[C@]1(CO)CCC2=Cc3c(cnn3-c3ccc(F)cc3)C[C@@]21C)c1cccnc1 (single isomer, unassigned) [Example 25a]",–,291 nM,7.9%
"C[C@]12Cc3cnn(-c4ccc(F)cc4)c3C=C1CC[C@@]2(CO)CC(O)c1ccccc1 (single isomer, unassigned) [Example 13b]",57.5%,7.2 nM,–
"C[C@]12Cc3cnn(-c4ccc(F)cc4)c3C=C1CC[C@@]2(CO)CC(O)c1cccc(C(F)(F)F)c1 (single isomer, unassigned) [Example 7a]",–,58.8 nM,60.2%
"C[C@]12Cc3cnn(-c4ccc(F)cc4)c3C=C1CC[C@@]2(CO)CC(O)c1ccccn1 (single isomer, unassigned) [Example 1a]",83.9%,5.6 nM,–
"C[C@]12Cc3cnn(-c4cccc(F)c4)c3C=C1CC[C@@]2(CO)CC(O)c1ccccn1 (single isomer, unassigned) [Example 19b]",24.2%,94.8 nM,–
"C[C@]12Cc3cnn(-c4ccc(F)cc4)c3C=C1CC[C@@]2(CO)CC(O)c1cc(F)cc(Cl)c1 (single isomer, unassigned) [Example 6b]",84.7%,124 nM,–
"CC(C)C(O)C[C@]1(CO)CCC2=Cc3c(cnn3-c3ccc(F)cc3)C[C@@]21C (single isomer, unassigned) [Example 14b]",32.6%,206 nM,–
"C[C@]12Cc3cnn(-c4ccc(F)cc4)c3C=C1CC[C@@]2(CO)CC(O)C(F)(F)F (single isomer, unassigned) [Example 28b]",42.3%,107 nM,–
"COc1cccnc1C(O)C[C@]1(CO)CCC2=Cc3c(cnn3-c3ccc(F)cc3)C[C@@]21C (single isomer, unassigned) [Example 21a]",32.4%,152 nM,–
"C[C@]12Cc3cnn(-c4ccc(F)cc4)c3C=C1CC[C@@]2(CO)CC(O)c1cc(F)cc(F)c1 (stereo partly drawn) [Example 9, 1-(3,5-difluorophenyl)-2-[(4αS,5R)-1-(4-fluorophenyl)-5-(hydroxymethyl)-4α-methyl-1,4,4α,5,6,7-hexahydrocyclopenta[f]indazol-5-yl]ethanol]",–,3.2 nM,80.3%
"C[C@]12Cc3cnn(-c4ccc(F)cc4)c3C=C1CC[C@@]2(CO)CC1OC(=O)c2ccccc21 (single isomer, unassigned) [Example 12a]",–,127 nM,47.4%
"Cc1ccc(C(O)C[C@]2(CO)CCC3=Cc4c(cnn4-c4ccc(F)cc4)C[C@@]32C)cc1 (single isomer, unassigned) [Example 2b]",–,316 nM,45.5%
"CC(O)(C[C@]1(CO)CCC2=Cc3c(cnn3-c3ccc(F)cc3)C[C@@]21C)c1cccnc1 (single isomer, unassigned) [Example 25b]",7.6%,401 nM,–
"COc1cccnc1C(O)C[C@]1(CO)CCC2=Cc3c(cnn3-c3cccc(F)c3)C[C@@]21C (single isomer, unassigned) [Example 26a]",24.8%,144 nM,–
"C[C@]12Cc3cnn(-c4ccc(F)cc4)c3C=C1CC[C@@]2(CO)CC1OC(=O)c2ccccc21 (single isomer, unassigned) [Example 12b]",54.2%,33.3 nM,–
"C[C@]12Cc3cnn(-c4cccc(F)c4)c3C=C1CC[C@@]2(CO)CC(O)c1ccccn1 (single isomer, unassigned) [Example 19a]",–,41.9 nM,43.7%
"C[C@]12Cc3cnn(-c4ccc(F)cc4)c3C=C1CC[C@@]2(CO)CC(O)c1cccnc1 (single isomer, unassigned) [Example 15a]",–,68.1 nM,52.7%
"C[C@]12Cc3cnn(-c4ccc(F)cc4)c3C=C1CC[C@@]2(CO)CC(O)c1cc(F)cc(Cl)c1 (single isomer, unassigned) [Example 6a]",62.4%,30.5 nM,–
"C[C@]12Cc3cnn(-c4ccc(F)cc4)c3C=C1CC[C@@]2(CO)CC(O)c1ccccc1 (single isomer, unassigned) [Example 13a]",–,8.8 nM,73.1%
"C[C@]12Cc3cnn(-c4ccc(F)cc4)c3C=C1CC[C@@]2(CO)CC(O)c1ccccc1F (stereo partly drawn) [Example 4, 1-(2-fluorophenyl)-2-[(4αS,5R)-1-(4-fluorophenyl)-5-(hydroxymethyl)-4α-methyl-1,4,4α,5,6,7-hexahydrocyclopenta[f]indazol-5-yl]ethanol]",–,39.7 nM,80.3%
